From US10722501B2 (BAYER AKTIENGESELLSCHAFT, priority 2016, dated 2020)

Molecular target: T1, recombinant full-length human prolyl endopeptidase (PREP) (Homo sapiens, UniProt P48147)
T1 construct: To recombinant full-length human prolyl endopeptidase (PREP, R&D-Systems, 4308-SE); purchased R&D-Systems 4308-SE
T1 sequence (P48147 1-710): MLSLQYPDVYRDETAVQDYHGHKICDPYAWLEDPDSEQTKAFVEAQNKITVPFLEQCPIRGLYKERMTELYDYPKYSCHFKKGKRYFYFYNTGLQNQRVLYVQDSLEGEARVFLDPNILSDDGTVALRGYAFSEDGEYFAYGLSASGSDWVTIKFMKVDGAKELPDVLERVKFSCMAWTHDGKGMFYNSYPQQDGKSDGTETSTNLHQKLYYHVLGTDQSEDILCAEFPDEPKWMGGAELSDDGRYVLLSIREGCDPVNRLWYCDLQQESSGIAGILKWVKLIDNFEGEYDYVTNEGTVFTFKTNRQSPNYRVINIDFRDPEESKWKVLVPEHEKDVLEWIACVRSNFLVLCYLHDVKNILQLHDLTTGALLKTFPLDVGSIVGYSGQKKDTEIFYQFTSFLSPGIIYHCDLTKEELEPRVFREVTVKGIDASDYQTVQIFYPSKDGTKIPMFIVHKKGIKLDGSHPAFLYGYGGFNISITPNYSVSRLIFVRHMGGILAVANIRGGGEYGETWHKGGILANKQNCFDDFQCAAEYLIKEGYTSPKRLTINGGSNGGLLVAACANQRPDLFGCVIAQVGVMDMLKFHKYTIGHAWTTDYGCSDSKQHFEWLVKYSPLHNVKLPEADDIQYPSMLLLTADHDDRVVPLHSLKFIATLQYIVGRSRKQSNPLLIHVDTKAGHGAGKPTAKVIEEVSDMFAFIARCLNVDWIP
Test: Biochemical human prolyl endopeptidase (PREP) assay with fluorescently labelled substrate
Conditions: substrate Z-Gly-Pro-AMC 50 μM, 32° C., 60 min; some as mean values from multiple independent determinations
How it was run: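 0.4 nM (final, example) recombinant PREP in pH 7.5 Tris buffer with EDTA, GSH, BSA and Brij-35; compounds at 1 nM to 30 μM. Reaction started with 50 μM Z-Gly-Pro-AMC and followed by fluorescence (ex 360/em 465 nm) at 32° C for 60 min. IC50 interpolated from percent activity based on initial slopes.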

| IC50 [nM] | Structure (SMILES) |
| --- | --- |
| 2.3 | CCn1nc(C(F)(F)F)cc1Cn1nc2n(c1=O)[C@H](C(=O)N1CC(F)C1)CCC2 [Example 363, (5S)-2-{[1-Ethyl-3-(trifluoromethyl)-1H-pyrazol-5-yl]methyl}-5-[(3-fluoroazetidin-1-yl)carbonyl]-5,6,7,8-tetrahydro[1,2,4]triazolo[4,3-a]pyridin-3(2H)-one] |
| 2.3 | O=C([C@@H]1CCCc2nn(Cc3csc(C(F)(F)F)n3)c(=O)n21)N1CC[C@H](F)C1 [Example 365, (5S)-5-{[(3S)-3-Fluoropyrrolidin-1-yl]carbonyl}-2-{[2-(trifluoromethyl)-1,3-thiazol-4-yl]methyl}-5,6,7,8-tetrahydro[1,2,4]triazolo[4,3-a]pyridin-3(2H)-one] |
| 13 | O=C([C@@H]1CCCc2nn(Cc3cccc(C(F)(F)F)n3)c(=O)n21)N1CC(F)C1 [Example 369, (5S)-5-[(3-Fluoroazetidin-1-yl)carbonyl]-2-{[6-(trifluoromethyl)pyridin-2-yl]methyl}-5,6,7,8-tetrahydro[1,2,4]triazolo[4,3-a]pyridin-3(2H)-one] |
| 1 | O=C([C@@H]1CCCc2nn(Cc3cccc(C(F)(F)F)n3)c(=O)n21)N1CC[C@H](F)C1 [Example 370, (5S)-5-{[(3S)-3-Fluoropyrrolidin-1-yl]carbonyl}-2-{[6-(trifluoromethyl)pyridin-2-yl]methyl}-5,6,7,8-tetrahydro[1,2,4]triazolo[4,3-a]pyridin-3(2H)-one] |
| 1.3 | O=C([C@@H]1CCCc2nn(Cc3cc(C(F)(F)F)c(Cl)cn3)c(=O)n21)N1C[C@@H](F)[C@@H](F)C1 [Example 372, (5S)-2-{[5-Chloro-4-(trifluoromethyl)pyridin-2-yl]methyl}-5-{[(3R,4S)-3,4-difluoropyrrolidin-1-yl]carbonyl}-5,6,7,8-tetrahydro[1,2,4]triazolo[4,3-a]pyridin-3(2H)-one] |
| 135 | O=C([C@@H]1CCCc2nn(Cc3cc(C(F)(F)F)c(Cl)cn3)c(=O)n21)N1CC(O)C1 [Example 373, (5S)-2-{[5-Chloro-4-(trifluoromethyl)pyridin-2-yl]methyl}-5-[(3-hydroxyazetidin-1-yl)carbonyl]-5,6,7,8-tetrahydro[1,2,4]triazolo[4,3-a]pyridin-3(2H)-one] |
| 51.5 | O=C([C@@H]1CCCc2nn(Cc3cc(C(F)(F)F)c(Cl)cn3)c(=O)n21)N1CC[C@H](O)C1 [Example 374, (5S)-2-{[5-Chloro-4-(trifluoromethyl)pyridin-2-yl]methyl}-5-{[(3S)-3-hydroxypyrrolidin-1-yl]carbonyl}-5,6,7,8-tetrahydro[1,2,4]triazolo[4,3-a]pyridin-3(2H)-one] |
| 2.6 | O=C([C@@H]1CCCc2nn(Cc3cc(C(F)(F)F)c(Cl)cn3)c(=O)n21)N1CC(F)C1 [Example 375, (5S)-2-{[5-Chloro-4-(trifluoromethyl)pyridin-2-yl]methyl}-5-[(3-fluoroazetidin-1-yl)carbonyl]-5,6,7,8-tetrahydro[1,2,4]triazolo[4,3-a]pyridin-3(2H)-one] |
| 0.41 | O=C([C@@H]1CCCc2nn(Cc3cc(C(F)(F)F)c(Cl)cn3)c(=O)n21)N1CC[C@H](F)C1 [Example 376, (5S)-2-{[5-Chloro-4-(trifluoromethyl)pyridin-2-yl]methyl}-5-{[(3S)-3-fluoropyrrolidin-1-yl]carbonyl}-5,6,7,8-tetrahydro[1,2,4]triazolo[4,3-a]pyridin-3(2H)-one] |
| 2.6 | O=C([C@@H]1CCCc2nn(Cc3ccc(Cl)cn3)c(=O)n21)N1C[C@@H](F)[C@@H](F)C1 [Example 378, (5S)-2-[(5-Chloropyridin-2-yl)methyl]-5-{[(3R,4S)-3,4-difluoropyrrolidin-1-yl]carbonyl}-5,6,7,8-tetrahydro[1,2,4]triazolo[4,3-a]pyridin-3(2H)-one] |
| 2.5 | O=C([C@@H]1CCCc2nn(Cc3ccc(Cl)cn3)c(=O)n21)N1CC(F)C1 [Example 379, (5S)-2-[(5-Chloropyridin-2-yl)methyl]-5-[(3-fluoroazetidin-1-yl)carbonyl]-5,6,7,8-tetrahydro[1,2,4]triazolo[4,3-a]pyridin-3(2H)-one] |
| 5.9 | COc1ccc(Cn2nc3n(c2=O)[C@H](C(=O)N2CC(F)C2)CCC3)nc1 [Example 382, (5S)-5-[(3-Fluoroazetidin-1-yl)carbonyl]-2-[(5-methoxypyridin-2-yl)methyl]-5,6,7,8-tetrahydro[1,2,4]triazolo[4,3-a]pyridin-3(2H)-one] |
| 11 | O=C([C@@H]1CCCc2nn(Cc3cccc(Cl)n3)c(=O)n21)N1CC(F)C1 [Example 384, (5S)-2-[(6-Chloropyridin-2-yl)methyl]-5-[(3-fluoroazetidin-1-yl)carbonyl]-5,6,7,8-tetrahydro[1,2,4]triazolo[4,3-a]pyridin-3(2H)-one] |

The next lines start with the compound.

| Structure (SMILES) | IC50 [nM] |
| --- | --- |
| CCn1nc(C(F)(F)F)cc1Cn1nc2n(c1=O)[C@H](C(=O)N1CCC(F)(F)C1)CCC2 [Example 362, (5S)-5-[(3,3-Difluoropyrrolidin-1-yl)carbonyl]-2-{[1-ethyl-3-(trifluoromethyl)-1H-pyrazol-5-yl]methyl}-5,6,7,8-tetrahydro[1,2,4]triazolo[4,3-a]pyridin-3(2H)-one] | 1.35 |
| O=C([C@@H]1CCCc2nn(Cc3csc(C(F)(F)F)n3)c(=O)n21)N1CCC(F)(F)C1 [Example 364, (5S)-5-[(3,3-Difluoropyrrolidin-1-yl)carbonyl]-2-{[2-(trifluoromethyl)-1,3-thiazol-4-yl]methyl}-5,6,7,8-tetrahydro[1,2,4]triazolo[4,3-a]pyridin-3(2H)-one] | 29 |
| O=C([C@@H]1CCCc2nn(Cc3csc(C(F)(F)F)n3)c(=O)n21)N1C[C@@H](F)[C@@H](F)C1 [Example 366, (5S)-5-{[(3R,4S)-3,4-Difluoropyrrolidin-1-yl]carbonyl}-2-{[2-(trifluoromethyl)-1,3-thiazol-4-yl]methyl}-5,6,7,8-tetrahydro[1,2,4]triazolo[4,3-a]pyridin-3(2H)-one] | 2.1 |
| N#C[C@@H]1CCCN1C(=O)[C@@H]1CCCc2nn(Cc3csc(C(F)(F)F)n3)c(=O)n21 [Example 367, (2S)-1-{[(5S)-3-Oxo-2-{[2-(trifluoromethyl)-1,3-thiazol-4-yl]methyl}-2,3,5,6,7,8-hexahydro[1,2,4]triazolo[4,3-a]pyridin-5-yl]carbonyl}pyrrolidine-2-carbonitrile] | 0.425 |
| O=C([C@@H]1CCCc2nn(Cc3cccc(C(F)(F)F)n3)c(=O)n21)N1CCC(F)(F)C1 [Example 368, (5S)-5-[(3,3-Difluoropyrrolidin-1-yl)carbonyl]-2-{[6-(trifluoromethyl)pyridin-2-yl]methyl}-5,6,7,8-tetrahydro[1,2,4]triazolo[4,3-a]pyridin-3(2H)-one] | 9 |
| O=C([C@@H]1CCCc2nn(Cc3cccc(C(F)(F)F)n3)c(=O)n21)N1C[C@@H](F)[C@@H](F)C1 [Example 371, (5S)-5-{[(3R,4S)-3,4-Difluoropyrrolidin-1-yl]carbonyl}-2-{[6-(trifluoromethyl)pyridin-2-yl]methyl}-5,6,7,8-tetrahydro[1,2,4]triazolo[4,3-a]pyridin-3(2H)-one] | 1.2 |
| O=C([C@@H]1CCCc2nn(Cc3ccc(Cl)cn3)c(=O)n21)N1CCC(F)(F)C1 [Example 377, (5S)-2-[(5-Chloropyridin-2-yl)methyl]-5-[(3,3-difluoropyrrolidin-1-yl)carbonyl]-5,6,7,8-tetrahydro[1,2,4]triazolo[4,3-a]pyridin-3(2H)-one] | 6.86 |
| COc1ccc(Cn2nc3n(c2=O)[C@H](C(=O)N2C[C@@H](F)[C@@H](F)C2)CCC3)nc1 [Example 380, (5S)-5-{[(3R,4S)-3,4-Difluoropyrrolidin-1-yl]carbonyl}-2-[(5-methoxypyridin-2-yl)methyl]-5,6,7,8-tetrahydro[1,2,4]triazolo[4,3-a]pyridin-3(2H)-one] | 2.1 |
| COc1ccc(Cn2nc3n(c2=O)[C@H](C(=O)N2CCC(F)(F)C2)CCC3)nc1 [Example 381, (5S)-5-[(3,3-Difluoropyrrolidin-1-yl)carbonyl]-2-[(5-methoxypyridin-2-yl)methyl]-5,6,7,8-tetrahydro[1,2,4]triazolo[4,3-a]pyridin-3(2H)-one] | 5.5 |
| O=C([C@@H]1CCCc2nn(Cc3cccc(Cl)n3)c(=O)n21)N1CCC(F)(F)C1 [Example 383, (5S)-2-[(6-Chloropyridin-2-yl)methyl]-5-[(3,3-difluoropyrrolidin-1-yl)carbonyl]-5,6,7,8-tetrahydro[1,2,4]triazolo[4,3-a]pyridin-3(2H)-one] | 8.55 |
| O=C([C@@H]1CCCc2nn(Cc3cccc(Cl)n3)c(=O)n21)N1C[C@@H](F)[C@@H](F)C1 [Example 385, (5S)-2-[(6-Chloropyridin-2-yl)methyl]-5-{[(3R,4S)-3,4-difluoropyrrolidin-1-yl]carbonyl}-5,6,7,8-tetrahydro[1,2,4]triazolo[4,3-a]pyridin-3(2H)-one] | 1.8 |
